{"source": "patent US20070248672A1", "about": "“Indole and Azaindole Derivatives with Antitumor Action” (priority 2004, published 2007)", "key": {"HT29/Mit cells": {"system": "HT29/Mit cells", "assay": "Antiproliferative activity, 72 h treatment, SRB assay, HT29/Mit resistant line", "format": "cell-based, human", "details": "Homo sapiens", "description": "HT29 and HT29/Mit (line obtained by prolonged exposure to mitoxantrone, and characterised by overexpression of BCRP, which confers cross resistance to topotecan, irinotecan and to its metabolite SN38): maintained in McCoy 5A medium+10% FCS.\n2.2 Scheme of the Antiproliferative Activity Experiment (Treatment Time: 72 Hours)\nThe cells (HT29 and HT29/Mit: 40,000 cells/ml, LoVo, LoVo/Dx and HCT116: 50,000 cells/ml) are seeded in 100 μl of the respective culture media in 96-well plates. 24 hours after seeding, an aliquot (10 μl) of drug at the various concentrations is added. In the samples in which the effect of the combination of two compounds is to be tested the inhibitor is added immediately before the cytotoxic. For each dose or combination of doses/drugs the effect of the treatment is determined in 4-8 replicates.\nAfter 72 hours of treatment the antiproliferative effect is evaluated using the sulforhodamine B (SRB) assay: the cells are fixed by adding 25 μl of 50% TCA to each well and left for 1 hour at 4° C. After washing them with water and allowing them to dry, 100 μl of 0.4% SRB in 1% acetic acid are added and left for 30 minutes at room temperature. After 4 washes in 1% acetic acid, they are left to dry then the dye fixed by the proteins is dissolved under basic conditions with 100 μl 10 mM cold Tris and the solution is read using a spectrophotometer at 550 nm.\nPercentage cell growth is calculated as the optical density of treated samples compared to the optical density of controls (untreated cells)."}, "[1]": {"molecular_target": "Vacuolar ATPase in bovine chromaffin cells membranes (BCG) (Bos taurus, UniProt P23956+Q29466)", "sequence (P23956 whole entry, looked up)": "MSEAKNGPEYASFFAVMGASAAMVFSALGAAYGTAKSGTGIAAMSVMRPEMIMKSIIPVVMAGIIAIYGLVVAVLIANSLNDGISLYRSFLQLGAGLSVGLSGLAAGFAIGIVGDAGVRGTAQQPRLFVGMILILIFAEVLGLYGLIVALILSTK", "sequence (Q29466 whole entry, looked up)": "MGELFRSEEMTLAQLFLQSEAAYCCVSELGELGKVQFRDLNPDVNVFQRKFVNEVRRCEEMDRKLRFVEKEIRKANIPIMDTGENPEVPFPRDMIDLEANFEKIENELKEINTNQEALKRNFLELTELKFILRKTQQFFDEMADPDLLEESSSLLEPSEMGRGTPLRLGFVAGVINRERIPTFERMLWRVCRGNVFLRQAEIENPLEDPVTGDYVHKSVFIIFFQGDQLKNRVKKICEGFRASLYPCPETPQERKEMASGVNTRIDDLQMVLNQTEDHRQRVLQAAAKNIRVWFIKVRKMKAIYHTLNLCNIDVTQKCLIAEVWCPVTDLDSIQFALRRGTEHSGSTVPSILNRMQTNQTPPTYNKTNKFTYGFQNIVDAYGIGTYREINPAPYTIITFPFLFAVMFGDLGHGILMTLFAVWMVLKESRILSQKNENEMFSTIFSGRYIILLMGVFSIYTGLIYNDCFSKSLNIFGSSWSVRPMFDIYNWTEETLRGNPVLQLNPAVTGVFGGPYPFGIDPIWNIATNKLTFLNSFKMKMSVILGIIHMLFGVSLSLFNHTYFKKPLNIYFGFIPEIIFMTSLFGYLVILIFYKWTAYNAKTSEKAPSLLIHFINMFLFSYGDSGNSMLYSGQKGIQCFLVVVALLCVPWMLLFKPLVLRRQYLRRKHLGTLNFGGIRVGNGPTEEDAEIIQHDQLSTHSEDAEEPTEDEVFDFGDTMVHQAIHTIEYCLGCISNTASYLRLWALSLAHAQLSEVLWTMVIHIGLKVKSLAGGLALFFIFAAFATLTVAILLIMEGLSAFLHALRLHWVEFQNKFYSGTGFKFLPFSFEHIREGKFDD", "assay": "Vacuolar ATPase inhibition in bovine chromaffin cells membranes (BCG)", "format": "biochemical", "details": "read-out: ATPase activity (IC50) BCG; bovine chromaffin cell membranes", "description": "Inhibition of bafilomycin sensitive ATPase activity is assayed by measuring the release of inorganic phosphate during 30 minutes of incubation, at 37° C., of the human osteoclastoma microsomal fraction in 96-well plates. The reaction medium contains 1 mM ATP, 10 mM Hepes-Tris buffer pH 8, 50 mM KCl, 5 μM valinomycin, 5 μM nigericin, 1 mM CDTA-Tris, 100 μM ammonium molybdate, 0.2 M sucrose and the microsomal fraction (20 μg protein/ml). The reaction is initiated by adding MgSO4 and terminated, after 30 minutes, by adding 4 volumes of the reagent malachite green, prepared according to Chan K., Anal. Biochem. 157, 375-380, 1986.\n1.2 Determination of Vacuolar ATpase Inhibition in the Bovine Chromaffin Cells Membranes (BCG)\nAbout 20 adrenal glands (Cidon S., J. Biol. Chem. 258, 2892-2898, 1983) are removed from healthy bovines; the medulla is quickly separated from the cortex, which is discarded. The medulla is homogenised at 4° C. with a suitable medium at pH 7.5, then filtered. The remaining solid material is further homogenised, filtered and recombined with the preceding filtrate, resuspended and centrifuged at 1000 g for 15 minutes; the supernatant obtained is centrifuged at 10000 g for 20 minutes. The resultant pellet is resuspended and stratified through a sucrose gradient formed of a lower part of 15 ml 1.5 M sucrose and an upper part of 10 ml 1.2 M sucrose. After overnight centrifugation at 4° C. with a SW28 rotor at 20000 rpm, the chromaffiln cells sediment into a pellet. This latter is resuspended, centrifuged at 3000 g for 10 minutes, and the supernatant obtained is centrifuged at 200000 g for 60 minutes. The pellet is then resuspended in 4 ml of a suitable medium containing 0.2 μg/ml pepstatin A and 0.4 μg/ml leupeptin and stored under liquid nitrogen.\nThe method for ATPase inhibition assay is the same as that followed for the osteoclastoma."}}, "note": "Like-named read-outs stand apart in the source and are kept apart here.", "data": [{"compound": "COC(=O)c1[nH]c2cc(OC)c(OC)cc2c1-c1ccc(OC)cc1", "note": "[Example 1, 5,6-Dimethoxy-3-(4-methoxy-phenyl)-1H-indole-2-carboxylic acid methyl ester]", "values": [{"measurement": "IC50", "setting": "HT29/Mit cells; HT-29, HT29/Mit, after 72 hours of treatment, range stated for the group, read-out: IC50 values in the resistant line", "value": "100 to 3000", "unit": "nM"}, {"measurement": "IC50", "setting": "HT29/Mit cells; HT-29/Mit resistant line, 72 h treatment, read-out: Antiproliferative activity (IC50 ± S.D.) HT-29/Mit", "value": "1000 ± 900", "unit": "nM"}, {"measurement": "IC50", "setting": "[1]", "value": 644, "unit": "nM"}]}]}
